Laboratory results published in patent publication US20260060907A1, “GADUSOL-CONTAINING SUNSCREEN FORMULATIONS” (ARCAEA, LLC, priority 2022, published 2026).

Legend:
erythrocytes = test: Cell-based antioxidant protection in erythrocytes (CAP-e) assay; conditions: for lysis of the cells: highest dose (3.3 mg/ml), erythrocytes
Experimental: The cell-based antioxidant protection in erythrocytes (CAP-e) assay (Honzel et. al., 2008, and Jensen GS. Cell-based antioxidant protection assay, also disclosed in U.S. Pat. No. 8,465,988, incorporated herein in its entirety by this reference) was used. This testing was selected to measure antioxidant power but, in addition, the method ensures that the antioxidant agent crosses the cell's lipid boundary layer so that only intracytoplasmic activity is measured. […] The tested concentrations for both gadusol and the Porphyra-334 ranged from 0.001 to 3.33 mg/mL.

[1] = In vivo SPF determination (FDA 21 CFR 201.327 SPF test procedure); design: species or system human
Experimental: An in vivo SPF determination was conducted according to FDA, 21 CFR Sec. 201.327, subpart (i), SPF Test Procedure, Sunscreen Drug Products for Over-the-Counter Human Use, Final Monograph, Federal Register, Vol. 76, No. 117, Jun. 17, 2011, the disclosure of which is incorporated herein in its entirety by this reference. Each in vivo test for a sunscreen formulation was tested on three different subjects.
For subject enrollment, the test subjects reported to the testing laboratory and received a complete explanation of the study procedures. Those who participated signed a written, witnessed consent form, and a permission to release personal health information form and provided a brief medical history. The technician did a final examination of the subject's back, between the belt-line and shoulder blades and determined their suitability to participate in this study.
A Xenon Arc Solar Simulator lamp, which has a continuous light spectrum in the UVA and UVB range (290-400 nanometers) was utilized for the in vivo light source. The spectral output of the solar simulator was filtered so that it meets the spectral output requirements for testing Sunscreen Drug Products for over-the-counter human use; FDA Final Monograph, 21 CFR Part 201.327 (i)(1), UV Source, Federal Register, Vol. 76, No. 117, Jun. 17, 2011 and the International Sun Protection Factor (SPF) Test Method, May 2006, the disclosure of which is incorporated herein in its entirety by this reference.
For a baseline value, a series of 5 UV radiation doses expressed as Joules/square meter, increasing in 25% increments, was administered to two unprotected separate locations on each test subject's back, just below the shoulder blades and above the belt-line, to determine the initial unprotected MED (MEDu).
The MEDu was administered in the following 5 dose series, with X representing the amount of UV energy projected to produce the test subject's MEDu (Table C).
On Day 2, subjects returned to the testing laboratory within 16 to 24 hours following completion of the MEDu doses for evaluation of their responses, and to determine each subject's unprotected MED (MEDu). A subject's Minimal Erythemal Dose (MED) was the quantity of erythema effective energy, or dose corresponding to the first site that produced the first unambiguous erythema reaction with well-defined borders. The following grading scale used in this study for determining a MED (+) response. • − No perceptible erythemal response • ? […]
MEDp UV Dose was administered by the technician via a series of 5 UV radiation doses expressed as Joules/square meter, as specified in FDA, 21 CFR, Sec. […]

[2] = In vitro SPF determination on VitroSkin substrate (Labsphere UV-1000, absorbance 290-400 nm); format: physicochemical
Experimental: SPF was also evaluated using an in vitro method that utilizes a synthetic/simulated skin as a test substrate. In this regard, VitroSkin® is an advanced testing substrate that effectively mimics the surface properties of human skin. It has been formulated to have topography, pH, critical surface tension, chemical reactivity and ionic strength that is similar to human skin. The procedure for in vitro testing was conducted according to a standard protocol. For testing, the test product was applied in a known amount to the substrate at an application density of 2 mg/cm^2. The in vitro SPF scores were determined using a Labsphere UV-1000 Ultraviolet Transmittance Analyzer. Spectral scans of absorbance of the artificial skin treated with a sample sunscreen formulation were performed in the UV region of 290-400 nm. The in vitro SPF was then calculated using the absorbance scan results. At least 5 in vitro SPF values were recorded for each example formulation and the averages calculated for reporting.
In another example, gadusol was tested by the in vitro method using the Vitroskin substrate in the methodology discussed above. The COS1 formulation having 0.0 and 0.5% (w/w) gadusol and the COS2 formulations were tested with 0, 0.25, 0.5% (w/w) gadusol.

Vero E6 fibroblasts = format: cell-based
Text: (§1) The amount of gadusol incorporated to provide the intended in vivo sunscreen SPF boosting activity can be from about 0.25, 0.50, 0.75, 1.0, 1.25, 1.50, 1.75, or 2.0% (w/w) in the sunscreen formulation that includes a physical/inorganic sunscreen active material, where any value can form an upper or lower endpoint, as appropriate. Still further, the amount of gadusol in the sunscreen formulation can be from about 0.25 to 2.0% (w/w), or from about 0.5 to 1.0% (w/w). In these, and possibly other amounts, gadusol suitably can provide a safe and effective sunscreen boosting effect when combined with sunscreen active ingredients. […] To summarize these safety tests, the cellular toxicity of gadusol was compared to that of a common sunscreen ingredient, oxybenzone. Vero E6 fibroblasts were used to evaluate toxicity. […] Toxicity towards E. coli was also not found.

Ames Test = format: cell-based
Text: as §1

Comet assay = format: cell-based
Text: as §1

E. coli = test: Toxicity towards E. coli; format: cell-based
Text: as §1

[3] = Stability of aqueous gadusol under acidic conditions (spectrophotometric at 296 nm); format: physicochemical; conditions: after 90 days at pH 2.5
Experimental: (§2) Yet further, the inventors have determined that the stability of aqueous gadusol can be improved when stored under acidic conditions. For example, 90% gadusol activity can be retained after 90 days at pH 2.5, where the concentration of gadusol is determined spectrophotometrically at 296 nm where it has an extinction coefficient of 21,800 M^−1 cm^−1. A standardized concentration curve can be used to determine an amount of gadusol in a volume sampled from a test solution at various time periods. Therefore, storage under acidic conditions may be useful for stabilizing gadusol generally, e.g., prior to introduction into a topical formulation. Combining gadusol with another antioxidant may be useful for extending the shelf life or stability of gadusol in a topical formulation.

[4] = UV absorbance of the compounds; format: physicochemical; conditions: at 296 nm
Experimental: as §2

[5] = Folin-Ciocalteu antioxidant capacity; format: biochemical; conditions: concentrations ranging from about 0.3 to 10 mg/ml

With `COC1=C(NCC(=O)O)C[C@@](O)(CO)CC1=N[C@H](C(=O)O)[C@@H](C)O` [Porphyra-334, reference compound] the “effect on the protective action of gadusol (CAP-e)” value (erythrocytes; gadusol and Porphyra-334 combined) was “did not interfere with the protective action of the gadusol” and the “lysis of the cells” value (erythrocytes) was “caused some lysis of the cells”.
For `COC1=C(O)CC(O)(CO)C(O)C1=O` (stereo not shown) [gadusol], the “in vivo SPF, times the SPF conferred by 10% ZnO alone” value (from here on “in vivo SPF … by 10% ZnO alone”) ([1]; 0.5% gadusol (w/w) with 10% ZnO) was “about 1.35 times”, the “in vivo SPF … by 10% ZnO alone” value ([1]; 0.75% gadusol (w/w) with 10% ZnO) was roughly 1.51 times and the “in vivo SPF … by 10% ZnO alone” value ([1]; 1.0% gadusol (w/w) with 10% ZnO) was roughly 2.0 times. The SPF boost ([1]; gadusol 0.5 to 1% (w/w) in formulation containing 10% ZnO) was 135 to 200%, the “greater in vitro SPF when added to a composition containing 10% ZnO” value ([2]; 0.5% (w/w) gadusol) was roughly 50% and the “in vitro absorbance on addition to a 10% ZnO sunscreen formulation” value ([2]; 0.5% gadusol, from about 290 to about 325 nm, FIG. 6) was “significantly more absorbance”. The “in vitro SPF activity of gadusol by itself” value ([2]; activity of the formulation matrix (1.1) subtracted) was 2.5-2.8 SPF units, the “cellular toxicity compared to oxybenzone” value (Vero E6 fibroblasts) was “less toxic than oxybenzone” and the “mutagenicity in the Ames Test” value (Ames Test) was “not to be mutagenic”. For the same compound, the “toxicity in the comet assay” value (Comet assay) was “nor was it toxic”, the “Toxicity towards E. coli” value (E. coli) was “not found” and the gadusol activity retained [3] was 90%. For the same compound, the extinction coefficient [4] was 21,800 M^−1 cm^−1, the “antioxidant power (Folin-Ciocalteu)” value [5] was “substantially equivalent to a mycosporine compound from “nori” seaweed” and the “antioxidant activity (CAP-e)” value (erythrocytes; at 0.133 mg/ml) was “Some in vivo antioxidant activity was seen”. The “antioxidant activity (CAP-e) compared with Porphyra-334” value (erythrocytes; at about 1 mg/ml) was “significantly more active antioxidant” and the “lysis of the cells” value (erythrocytes) was “caused some lysis of the cells”.
